Measurements as given in patent US10870647B2, “Imidazopyridine derivative, method for preparing same, and pharmaceutical composition containing same as active ingredient for preventing or treating cancer” (DAEGU-GYEONGBUK MEDICAL INNOVATION FOUNDATION, priority 2016, dated 2020).
Where two headings read alike, the source gives them in different places.

Assays:
Test in all cases: Kinase selectivity, scanMAX Kinase assay panel (DiscoverX), % control at 1 uM
Type in all cases: binding
[1] = target: T1, scanMAX Kinase assay panel (Homo sapiens, UniProt Q92918); details: HPK1; 1 uM; read-out: Percent Control (%)
T1 construct: purchased DiscoverX
In short: (§1)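 Single-point screen at 1 uM compound in DMSO. Lower % control means stronger inhibition, with the cutoff for activity set at <35%.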

[2] = target: T2, scanMAX Kinase assay panel (Homo sapiens, UniProt Q15375); details: EPHA7; 1 uM; read-out: Percent Control (%)
T2 construct: purchased DiscoverX
T2 sequence (Q15375 28-998): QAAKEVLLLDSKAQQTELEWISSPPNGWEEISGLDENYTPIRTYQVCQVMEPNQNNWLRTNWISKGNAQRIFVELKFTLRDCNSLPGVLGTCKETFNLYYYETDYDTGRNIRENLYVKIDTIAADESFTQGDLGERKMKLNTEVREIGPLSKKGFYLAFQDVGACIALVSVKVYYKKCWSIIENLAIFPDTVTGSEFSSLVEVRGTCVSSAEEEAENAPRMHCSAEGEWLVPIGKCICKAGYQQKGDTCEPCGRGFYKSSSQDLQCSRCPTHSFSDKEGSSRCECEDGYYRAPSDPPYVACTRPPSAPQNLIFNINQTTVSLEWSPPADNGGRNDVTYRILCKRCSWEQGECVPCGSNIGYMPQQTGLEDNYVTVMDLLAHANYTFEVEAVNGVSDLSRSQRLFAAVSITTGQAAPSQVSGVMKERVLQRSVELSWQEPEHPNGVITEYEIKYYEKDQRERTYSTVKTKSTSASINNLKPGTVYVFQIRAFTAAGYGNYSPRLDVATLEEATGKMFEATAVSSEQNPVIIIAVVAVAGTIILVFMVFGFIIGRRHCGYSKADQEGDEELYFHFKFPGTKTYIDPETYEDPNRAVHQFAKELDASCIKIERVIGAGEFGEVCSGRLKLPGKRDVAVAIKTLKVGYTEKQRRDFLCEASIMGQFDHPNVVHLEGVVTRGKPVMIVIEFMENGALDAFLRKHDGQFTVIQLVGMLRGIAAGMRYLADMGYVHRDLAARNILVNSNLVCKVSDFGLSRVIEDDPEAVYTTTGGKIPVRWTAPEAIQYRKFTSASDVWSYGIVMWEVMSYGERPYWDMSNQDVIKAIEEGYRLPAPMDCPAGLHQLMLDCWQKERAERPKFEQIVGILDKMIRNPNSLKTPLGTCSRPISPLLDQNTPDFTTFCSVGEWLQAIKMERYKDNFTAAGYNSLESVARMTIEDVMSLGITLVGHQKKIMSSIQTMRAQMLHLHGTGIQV
In short: as §1

[3] = target: T3, scanMAX Kinase assay panel (Homo sapiens, UniProt Q00536); details: PCTK1; 1 uM; read-out: Percent Control (%)
T3 construct: purchased DiscoverX
T3 sequence (Q00536 whole entry): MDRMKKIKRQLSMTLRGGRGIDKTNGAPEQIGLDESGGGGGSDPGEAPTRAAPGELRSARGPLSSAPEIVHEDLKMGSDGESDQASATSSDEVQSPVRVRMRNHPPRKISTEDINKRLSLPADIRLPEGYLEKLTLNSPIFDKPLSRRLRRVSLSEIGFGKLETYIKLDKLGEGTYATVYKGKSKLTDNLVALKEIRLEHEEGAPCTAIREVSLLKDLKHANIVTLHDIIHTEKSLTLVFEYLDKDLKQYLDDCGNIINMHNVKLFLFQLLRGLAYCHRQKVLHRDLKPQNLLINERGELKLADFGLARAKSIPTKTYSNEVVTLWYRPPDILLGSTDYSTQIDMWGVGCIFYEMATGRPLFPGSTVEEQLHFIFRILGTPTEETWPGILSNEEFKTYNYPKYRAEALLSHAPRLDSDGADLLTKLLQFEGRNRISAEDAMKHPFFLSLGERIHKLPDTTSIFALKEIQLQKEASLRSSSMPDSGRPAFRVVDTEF
In short: as §1

[4] = target: T4, scanMAX Kinase assay panel (Homo sapiens, UniProt Q9H4A3); details: WNK1; 1 uM; read-out: Percent Control (%)
T4 construct: purchased DiscoverX
In short: as §1

[5] = target: T5, scanMAX Kinase assay panel (Homo sapiens, UniProt Q8NI60); details: ADCK3; 1 uM; read-out: Percent Control (%)
T5 construct: purchased DiscoverX
T5 sequence (Q8NI60 163-647): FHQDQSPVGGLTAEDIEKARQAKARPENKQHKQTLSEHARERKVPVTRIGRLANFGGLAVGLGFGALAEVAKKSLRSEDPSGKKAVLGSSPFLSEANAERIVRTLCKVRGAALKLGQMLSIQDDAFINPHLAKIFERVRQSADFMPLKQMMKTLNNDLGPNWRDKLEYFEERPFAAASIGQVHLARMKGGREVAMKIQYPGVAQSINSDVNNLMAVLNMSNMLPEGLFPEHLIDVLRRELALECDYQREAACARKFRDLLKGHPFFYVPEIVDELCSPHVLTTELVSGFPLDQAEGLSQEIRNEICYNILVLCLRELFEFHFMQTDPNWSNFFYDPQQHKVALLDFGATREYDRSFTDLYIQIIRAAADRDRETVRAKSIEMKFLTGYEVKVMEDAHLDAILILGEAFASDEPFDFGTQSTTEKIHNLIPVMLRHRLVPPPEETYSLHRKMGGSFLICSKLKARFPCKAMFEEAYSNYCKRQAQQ
In short: as §1

[6] = target: T6, scanMAX Kinase assay panel (Homo sapiens, UniProt P22607); details: FGFR3; 1 uM; read-out: Percent Control (%)
T6 construct: purchased DiscoverX
In short: as §1

[7] = target: T7, scanMAX Kinase assay panel (Homo sapiens, UniProt Q9NSY1); details: BIKE; 1 uM; read-out: Percent Control (%)
T7 construct: purchased DiscoverX
T7 sequence (Q9NSY1 whole entry): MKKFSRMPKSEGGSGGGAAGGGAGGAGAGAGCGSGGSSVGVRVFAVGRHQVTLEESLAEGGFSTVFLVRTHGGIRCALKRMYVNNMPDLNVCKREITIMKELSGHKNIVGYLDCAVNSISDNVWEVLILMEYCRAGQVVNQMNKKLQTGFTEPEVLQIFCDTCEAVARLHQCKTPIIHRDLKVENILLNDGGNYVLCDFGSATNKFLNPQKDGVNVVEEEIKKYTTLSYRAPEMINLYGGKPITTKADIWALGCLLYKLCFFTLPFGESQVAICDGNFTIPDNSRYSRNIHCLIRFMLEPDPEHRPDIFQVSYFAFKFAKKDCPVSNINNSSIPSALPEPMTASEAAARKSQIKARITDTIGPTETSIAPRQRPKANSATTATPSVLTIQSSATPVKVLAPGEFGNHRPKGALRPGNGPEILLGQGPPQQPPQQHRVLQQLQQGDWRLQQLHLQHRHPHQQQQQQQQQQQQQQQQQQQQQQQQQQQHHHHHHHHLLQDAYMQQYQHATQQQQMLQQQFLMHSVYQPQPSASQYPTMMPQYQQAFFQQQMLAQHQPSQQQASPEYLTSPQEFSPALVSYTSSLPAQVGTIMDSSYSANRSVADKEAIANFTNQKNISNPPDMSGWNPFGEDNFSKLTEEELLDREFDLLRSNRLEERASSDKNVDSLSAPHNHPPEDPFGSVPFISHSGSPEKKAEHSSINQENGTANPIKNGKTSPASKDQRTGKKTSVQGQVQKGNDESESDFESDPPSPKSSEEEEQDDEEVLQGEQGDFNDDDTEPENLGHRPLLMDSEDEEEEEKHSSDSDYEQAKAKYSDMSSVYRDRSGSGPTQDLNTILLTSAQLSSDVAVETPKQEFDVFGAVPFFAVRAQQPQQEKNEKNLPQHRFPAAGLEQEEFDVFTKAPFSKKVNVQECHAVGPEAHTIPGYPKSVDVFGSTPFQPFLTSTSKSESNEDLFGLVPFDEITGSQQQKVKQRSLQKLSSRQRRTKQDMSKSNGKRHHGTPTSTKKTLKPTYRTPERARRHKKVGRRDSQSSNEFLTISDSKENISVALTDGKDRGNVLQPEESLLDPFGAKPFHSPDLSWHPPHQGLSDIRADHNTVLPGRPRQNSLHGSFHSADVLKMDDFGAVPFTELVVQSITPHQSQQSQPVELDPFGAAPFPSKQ
In short: as §1

[8] = target: T8, scanMAX Kinase assay panel (Homo sapiens, UniProt Q8IU85); details: CAMK1D; 1 uM; read-out: Percent Control (%)
T8 construct: purchased DiscoverX
T8 sequence (Q8IU85 whole entry): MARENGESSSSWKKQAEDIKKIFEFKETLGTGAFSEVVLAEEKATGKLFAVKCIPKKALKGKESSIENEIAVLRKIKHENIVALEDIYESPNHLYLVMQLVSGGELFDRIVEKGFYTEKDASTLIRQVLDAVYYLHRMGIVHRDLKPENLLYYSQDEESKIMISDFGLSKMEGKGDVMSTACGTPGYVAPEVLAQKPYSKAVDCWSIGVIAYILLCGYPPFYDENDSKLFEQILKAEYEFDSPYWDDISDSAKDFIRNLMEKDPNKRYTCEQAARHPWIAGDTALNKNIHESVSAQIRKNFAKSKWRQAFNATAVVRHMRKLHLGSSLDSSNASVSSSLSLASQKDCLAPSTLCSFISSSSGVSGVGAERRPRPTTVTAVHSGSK
In short: as §1

[9] = target: T9, scanMAX Kinase assay panel (Homo sapiens, UniProt Q9NYL2); details: ZAK; 1 uM; read-out: Percent Control (%)
T9 construct: purchased DiscoverX
T9 sequence (Q9NYL2 whole entry): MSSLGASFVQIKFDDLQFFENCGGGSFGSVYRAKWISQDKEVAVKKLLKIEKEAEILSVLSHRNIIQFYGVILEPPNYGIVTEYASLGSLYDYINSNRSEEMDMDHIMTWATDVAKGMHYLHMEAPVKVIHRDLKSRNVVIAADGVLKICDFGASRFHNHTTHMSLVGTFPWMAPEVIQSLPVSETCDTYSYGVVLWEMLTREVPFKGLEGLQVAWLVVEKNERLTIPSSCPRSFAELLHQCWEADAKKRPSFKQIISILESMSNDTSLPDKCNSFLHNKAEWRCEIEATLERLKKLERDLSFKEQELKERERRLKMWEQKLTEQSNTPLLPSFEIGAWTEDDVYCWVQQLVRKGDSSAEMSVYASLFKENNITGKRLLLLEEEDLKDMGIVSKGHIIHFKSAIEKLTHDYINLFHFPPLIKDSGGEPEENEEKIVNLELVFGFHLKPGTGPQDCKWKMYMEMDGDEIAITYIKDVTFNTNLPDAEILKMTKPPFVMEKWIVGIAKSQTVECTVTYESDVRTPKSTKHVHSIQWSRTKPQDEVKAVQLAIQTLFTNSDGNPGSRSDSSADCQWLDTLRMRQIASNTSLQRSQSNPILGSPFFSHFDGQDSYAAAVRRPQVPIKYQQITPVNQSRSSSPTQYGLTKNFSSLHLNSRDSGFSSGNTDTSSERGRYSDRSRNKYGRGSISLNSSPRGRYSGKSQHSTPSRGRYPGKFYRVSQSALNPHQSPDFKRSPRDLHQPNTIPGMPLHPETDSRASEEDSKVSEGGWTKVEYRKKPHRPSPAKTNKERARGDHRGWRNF
In short: as §1

[10] = target: T10, scanMAX Kinase assay panel (Homo sapiens, UniProt Q9UK32); details: 1 uM, read-out: Percent Control (%)
T10 construct: purchased DiscoverX
T10 sequence (Q9UK32 whole entry): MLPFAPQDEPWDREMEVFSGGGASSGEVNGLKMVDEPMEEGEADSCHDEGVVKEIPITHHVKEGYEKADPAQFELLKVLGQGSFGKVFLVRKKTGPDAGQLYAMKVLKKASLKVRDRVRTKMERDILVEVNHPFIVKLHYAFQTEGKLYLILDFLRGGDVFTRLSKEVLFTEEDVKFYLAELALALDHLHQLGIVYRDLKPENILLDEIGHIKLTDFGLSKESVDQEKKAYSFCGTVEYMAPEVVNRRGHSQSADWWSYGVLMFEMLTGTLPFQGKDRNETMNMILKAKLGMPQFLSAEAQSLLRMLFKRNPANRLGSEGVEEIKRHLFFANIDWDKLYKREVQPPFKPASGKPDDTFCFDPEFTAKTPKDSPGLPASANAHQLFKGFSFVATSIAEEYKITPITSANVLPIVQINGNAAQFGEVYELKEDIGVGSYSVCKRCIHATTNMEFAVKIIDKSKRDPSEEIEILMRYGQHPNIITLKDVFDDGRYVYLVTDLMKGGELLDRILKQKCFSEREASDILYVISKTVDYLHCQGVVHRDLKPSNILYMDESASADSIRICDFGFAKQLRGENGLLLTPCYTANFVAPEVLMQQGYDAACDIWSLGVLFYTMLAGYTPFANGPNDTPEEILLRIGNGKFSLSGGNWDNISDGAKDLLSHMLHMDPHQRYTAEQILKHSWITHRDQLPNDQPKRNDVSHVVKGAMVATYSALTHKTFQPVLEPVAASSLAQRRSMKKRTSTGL
In short: as §1

[11] = target: T11, scanMAX Kinase assay panel (Homo sapiens, UniProt P42336, H1047Y); details: PIK3CA (H1047Y); 1 uM; read-out: Percent Control (%)
T11 construct: purchased DiscoverX
In short: as §1

[12] = target: T12, scanMAX Kinase assay panel (Homo sapiens, UniProt Q9UQB9); details: AURKC; 1 uM; read-out: Percent Control (%)
T12 construct: purchased DiscoverX
T12 sequence (Q9UQB9 1-309): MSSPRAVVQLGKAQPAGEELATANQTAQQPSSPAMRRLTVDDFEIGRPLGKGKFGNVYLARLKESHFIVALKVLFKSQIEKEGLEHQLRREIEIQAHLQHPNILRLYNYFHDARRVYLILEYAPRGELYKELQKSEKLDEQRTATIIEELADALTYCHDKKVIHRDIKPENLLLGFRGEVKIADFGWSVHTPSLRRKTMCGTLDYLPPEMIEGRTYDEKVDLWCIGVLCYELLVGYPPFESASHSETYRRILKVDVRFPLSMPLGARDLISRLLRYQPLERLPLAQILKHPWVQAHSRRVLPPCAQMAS
In short: as §1

[13] = target: T13, scanMAX Kinase assay panel (Homo sapiens, UniProt Q6XUX3); details: RIPK5; 1 uM; read-out: Percent Control (%)
T13 construct: purchased DiscoverX
T13 sequence (Q6XUX3 1-929): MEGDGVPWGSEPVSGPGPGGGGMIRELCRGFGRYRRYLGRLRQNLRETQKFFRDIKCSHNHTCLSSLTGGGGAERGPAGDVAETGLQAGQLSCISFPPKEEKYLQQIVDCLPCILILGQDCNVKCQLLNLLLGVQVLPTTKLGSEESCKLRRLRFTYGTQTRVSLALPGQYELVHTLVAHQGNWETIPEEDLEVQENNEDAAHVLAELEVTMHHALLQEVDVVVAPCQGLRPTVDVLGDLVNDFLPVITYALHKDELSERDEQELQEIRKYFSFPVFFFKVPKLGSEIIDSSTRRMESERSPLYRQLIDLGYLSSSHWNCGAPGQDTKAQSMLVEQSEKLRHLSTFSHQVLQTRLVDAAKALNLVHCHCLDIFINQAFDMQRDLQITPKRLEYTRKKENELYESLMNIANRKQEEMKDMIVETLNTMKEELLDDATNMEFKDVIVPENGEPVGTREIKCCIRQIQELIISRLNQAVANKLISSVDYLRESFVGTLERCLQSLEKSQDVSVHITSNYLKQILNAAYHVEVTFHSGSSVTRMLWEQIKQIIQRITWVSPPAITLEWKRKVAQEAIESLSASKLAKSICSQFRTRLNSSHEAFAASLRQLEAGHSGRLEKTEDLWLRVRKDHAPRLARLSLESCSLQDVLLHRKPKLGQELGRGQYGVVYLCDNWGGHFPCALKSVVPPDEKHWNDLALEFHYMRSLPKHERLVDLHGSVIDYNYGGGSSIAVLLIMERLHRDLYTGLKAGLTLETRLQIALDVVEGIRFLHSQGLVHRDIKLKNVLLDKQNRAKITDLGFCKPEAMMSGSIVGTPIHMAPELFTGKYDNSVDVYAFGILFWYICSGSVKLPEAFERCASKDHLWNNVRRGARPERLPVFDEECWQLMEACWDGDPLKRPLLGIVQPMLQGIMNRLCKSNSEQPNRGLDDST
In short: as §1

[14] = target: T14, scanMAX Kinase assay panel (Homo sapiens, UniProt P54646); details: AMPK-alpha2; 1 uM; read-out: Percent Control (%)
T14 construct: purchased DiscoverX
In short: as §1

[15] = target: T15, scanMAX Kinase assay panel (Homo sapiens, UniProt Q5S007, G2019S); details: LRRK2 (G2019S); 1 uM; read-out: Percent Control (%)
T15 construct: purchased DiscoverX
In short: as §1

[16] = target: T16, scanMAX Kinase assay panel (Homo sapiens, UniProt P37023); details: ACVRL1; 1 uM; read-out: Percent Control (%)
T16 construct: purchased DiscoverX
In short: as §1

SMILES | remaining binding at 1 µM [1] [%] | remaining binding at 1 µM [2] [%] | remaining binding at 1 µM [3] [%] | remaining binding at 1 µM [4] [%] | remaining binding at 1 µM [5] [%] | remaining binding at 1 µM [6] [%] | remaining binding at 1 µM [7] [%] | remaining binding at 1 µM [8] [%] | remaining binding at 1 µM [9] [%] | remaining binding at 1 µM ([10]; RSK4 (Kin.Dom.1-N-terminal)) [%] | remaining binding at 1 µM ([10]; RSK4 (Kin.Dom.2-C-terminal)) [%] | remaining binding at 1 µM [11] [%] | remaining binding at 1 µM [12] [%] | remaining binding at 1 µM [13] [%] | remaining binding at 1 µM [14] [%] | remaining binding at 1 µM [15] [%] | remaining binding at 1 µM [16] [%]
Cc1ccc(C(=O)Nc2ccc(CN3CCN(C)CC3)c(C(F)(F)F)c2)cc1C#Cc1cnc2c(Nc3cnn(C)c3)cccn12 [Example 1, 4-methyl-3-((8-((1-methyl-1H-pyrazol-4-yl)amino)imidazo[1,2-a]pyridin-3-yl)ethynyl)-N-(4-((4-methylpiperazin-1-yl)methyl)-3-(trifluoromethyl)phenyl)benzamide] | 1 | 5 | 93 | 55 | 100 | 3 | 81 | 65 | 1 | 81 | 59 | 74 | 1 | 41 | 4 | 27 | 99
Cc1cn(-c2cc(NC(=O)c3ccc(C)c(C#Cc4cnc5c(Nc6cnn(C)c6)cccn45)c3)cc(C(F)(F)F)c2)cn1 [Example 12, 4-methyl-N-(3-(4-methyl-1H-imidazol-1-yl)-5-(trifluoromethyl)phenyl)-3-((8-((1-methyl-1H-pyrazol-4-yl)amino)imidazo[1,2-a]pyridin-3-yl)ethynyl)benzamide] | 5 | 69 | 100 | 100 | 93 | 33 | 85 | 82 | 1 | 93 | 68 | 84 | 48 | 100 | 79 | 100 | 99
Cc1ccc(NC(=O)C2(C(=O)Nc3ccc(F)cc3)CC2)cc1C#Cc1cnc2c(Nc3cnn(C(C)C)c3)cccn12 [Example 78] | 78 | 100 | 100 | 92 | 100 | 100 | 100 | 98 | 19 | 93 | 98 | 100 | 88 | 79 | 100 | 100 | 100
